Reference: patent US9834548B2, “Pyridazine compounds as JAK inhibitors” (Portola Pharmaceuticals, Inc., priority 2014, dated 2017)

Key:
Format in all cases: biochemical
JAK1 = JAK1 (Homo sapiens (Human), UniProt P23458); test: Purified kinase assay (Z'-LYTE), JAK1; details: Table 1; read-out: JAK1 IC50
Description: (§1) JAK and TYK2 tyrosine phosphorylation activity is measured using the Z′-LYTE™ Technology developed by Invitrogen Corporation (Carlsbad, Calif.). For JAK1, JAK2 and JAK3 the Z′-LYTE™ Kinase Assay Kit-Tyr6 Peptide (part number PV4122) was used. For TYK2 the Z′-LYTE™ Kinase Assay Kit-Tyr6 Peptide (part number PV3192) was used. The Z′-LYTE™ biochemical assay employs a fluorescence resonance energy transfer (FRET) coupled-enzyme format and is based on the differential sensitivity of phosphorylated and non-phosphorylated peptides to proteolytic cleavage. The assay uses a synthetic peptide substrate that is labeled with a donor fluorophore (coumarin) and an acceptor fluorophore (fluorescein) that make up a FRET pair. In the primary reaction (the Kinase Reaction), the kinase transfers the γ-phosphate of ATP to a single tyrosine residue on the substrate, while the presence of a kinase inhibitor in the primary reaction suppresses phosphorylation. In the secondary reaction (the Development Reaction), a site-specific protease (the Development Reagent) is added. The development buffer quenches the Kinase Reaction, while the protease recognizes and cleaves non-phosphorylated Z′-LYTE™ peptide substrate. Cleavage disrupts FRET between the donor and acceptor fluorophores on the non-phosphorylated substrate, while uncleaved, phosphorylated substrate maintains FRET.
(§2) To test the ability of candidate molecules to inhibit JAK tyrosine phosphorylation activity, molecules are reconstituted in 100% DMSO and serially diluted 1:10 in polypropylene v-bottom microtiter plates. The candidate molecules are then diluted 1:25 into kinase buffer and 2.5 μl transferred into duplicate wells of a 384 well low volume black microtiter assay plate (Corning, USA). The final DMSO concentration in the assay is 1%. The kinase reaction contains 2.5 μl of a candidate molecule, 5 μl of catalytic domain recombinant Kinase enzyme+Tyr peptide substrate (Invitrogen, CA) and ATP (Invitrogen, CA). The kinase reaction is allowed to proceed for 1 hour at room temperature. The protease reaction is initiated by the addition of Development Reagent (Invitrogen, CA). After 1 hour incubation at room temperature the fluorescence is measured using a FlexStation plate reader (Molecular Devices, Sunnyvale, Calif.). The reader settings used are as follows: Fluorescence mode, endpoint, top read, excitation 400 nm, emission 445 nm and 520 nm, Auto Cutoff 435 nm and 515 nm, PMT sensitivity high, 6 reads per well Inhibition of JAK activity is calculated as the percent phosphorylation of substrate in the presence of inhibitor compared to the percent phosphorylation of substrate in the absence of inhibitor. IC50's were derived using Xlfit 4.3 (IDBS, UK), 4 parameter logistic model 205: Y=(A+((B−A)/(1+((C/x)^D)))).

JAK2 = JAK2 (Homo sapiens (Human), UniProt O60674); test: Purified kinase assay (Z'-LYTE), JAK2; details: Table 1; read-out: JAK2 IC50
JAK2, sequence (O60674 849-1124): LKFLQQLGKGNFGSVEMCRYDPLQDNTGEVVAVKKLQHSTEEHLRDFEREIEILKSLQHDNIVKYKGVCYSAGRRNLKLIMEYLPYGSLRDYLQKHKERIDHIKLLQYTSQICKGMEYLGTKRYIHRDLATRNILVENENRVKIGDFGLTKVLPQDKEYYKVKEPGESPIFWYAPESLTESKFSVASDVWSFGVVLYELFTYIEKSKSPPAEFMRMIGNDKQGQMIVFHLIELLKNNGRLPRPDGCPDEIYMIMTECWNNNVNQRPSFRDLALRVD
Description: as §1, §2

JAK3 = JAK3 (Homo sapiens (Human), UniProt P52333); test: Purified kinase assay (Z'-LYTE), JAK3; details: Table 1; read-out: JAK3 IC50
JAK3, sequence (P52333 822-1111): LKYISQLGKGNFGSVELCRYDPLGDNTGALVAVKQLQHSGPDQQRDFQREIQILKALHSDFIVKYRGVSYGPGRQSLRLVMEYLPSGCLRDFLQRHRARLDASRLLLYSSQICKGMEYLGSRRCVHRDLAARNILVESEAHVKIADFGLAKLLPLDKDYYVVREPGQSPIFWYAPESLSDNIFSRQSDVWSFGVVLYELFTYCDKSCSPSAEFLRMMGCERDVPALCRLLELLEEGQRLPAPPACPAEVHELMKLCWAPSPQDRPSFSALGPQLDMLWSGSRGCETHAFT
Description: as §1, §2

JAK1, sequence (P23458 875-1153): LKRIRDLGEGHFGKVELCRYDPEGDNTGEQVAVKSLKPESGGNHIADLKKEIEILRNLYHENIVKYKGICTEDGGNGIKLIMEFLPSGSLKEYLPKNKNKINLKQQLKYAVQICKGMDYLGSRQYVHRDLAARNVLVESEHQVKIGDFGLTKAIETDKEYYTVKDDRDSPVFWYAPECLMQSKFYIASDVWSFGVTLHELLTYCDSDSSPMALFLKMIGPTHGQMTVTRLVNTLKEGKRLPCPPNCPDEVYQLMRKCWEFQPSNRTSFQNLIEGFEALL

SMILES	IC50 (JAK1)	IC50 (JAK2)	IC50 (JAK3)
CC(=O)N1CCN(c2ccc(Nc3cc(NCc4cc(-n5ccnc5)ccc4F)c(C(N)=O)nn3)cc2)CC1 [Compound 103]	> 1000 nM	100 to 1000 nM	10 to 100 nM
CC(=O)N(C)c1ccc(Nc2cc(NCc3cccc(F)c3)c(C(N)=O)nn2)cc1 [Compound 101]	> 1000 nM	100 to 1000 nM	100 to 1000 nM
NC(=O)c1nnc(Nc2cnn(CC3CC3)c2)cc1NCc1cccc(F)c1F [Compound 118]	100 to 1000 nM	100 to 1000 nM	10 to 100 nM
CC(=O)N1CCN(c2ccc(Nc3cc(NCc4cccc(-c5cccnc5)c4)c(C(N)=O)nn3)cc2)CC1 [Compound 70]	> 1000 nM	100 to 1000 nM	10 to 100 nM
CC(=O)N1CCN(c2ccc(Nc3cc(NCc4ccccc4F)c(C(N)=O)nn3)nc2)CC1 [Compound 28]	100 to 1000 nM	10 to 100 nM	1 to 10 nM
CC(=O)N1CCC(Cn2cc(Nc3cc(NCc4cccc5ccsc45)c(C(N)=O)nn3)cn2)CC1 [Compound 125]	100 to 1000 nM	10 to 100 nM	1 to 10 nM
NC(=O)c1nnc(Nc2ccc(N3CCNCC3)cc2)cc1NCC1CCC1 [Compound 17]	> 1000 nM	> 1000 nM	100 to 1000 nM
NC(=O)c1nnc(Nc2ccc(N3CCOCC3)cc2)cc1NCc1c(F)cccc1F [Compound 39]	100 to 1000 nM	10 to 100 nM	1 to 10 nM
NC(=O)c1nnc(Nc2ccc(N3CCNCC3)cc2)cc1NC1CCCCC1 [Compound 11, 4-(cyclohexylamino)-6-((4-(piperazin-1-yl)phenyl)amino)pyridazine-3-carboxamide]	> 1000 nM	100 to 1000 nM	100 to 1000 nM
CC(C)n1cc(Nc2cc(NCc3cccc(F)c3)c(C(N)=O)nn2)cn1 [Compound 106]	> 1000 nM	100 to 1000 nM	10 to 100 nM
CC(=O)N1CCN(c2ccc(Nc3cc(NCc4cccc(C)c4)c(C(N)=O)nn3)cc2)CC1 [Compound 47]	> 1000 nM	100 to 1000 nM	10 to 100 nM
CN(C)C(=O)N1CCC(Cn2cc(Nc3cc(NCc4cccc(F)c4F)c(C(N)=O)nn3)cn2)CC1 [Compound 133]	> 1000 nM	100 to 1000 nM	1 to 10 nM
CC(=O)N1CCN(c2ccc(Nc3cc(NCc4cccc(F)c4)c(C(N)=O)nn3)cn2)CC1 [Compound 49]	> 1000 nM	> 1000 nM	100 to 1000 nM
NC(=O)c1nnc(Nc2cnn(CC3CC3)c2)cc1NCc1cccc2ccsc12 [Compound 117]	100 to 1000 nM	10 to 100 nM	10 to 100 nM
CC(=O)N1CCN(c2ccc(Nc3cc(NC4CCN(c5ccc(C#N)cn5)CC4)c(C(N)=O)nn3)cc2)CC1 [Compound 92]	10 to 100 nM	10 to 100 nM	10 to 100 nM
CS(=O)(=O)Cc1ccc(Nc2cc(NCc3cccc(-c4ccncc4)c3)c(C(N)=O)nn2)cc1 [Compound 132]	> 1000 nM	> 1000 nM	10 to 100 nM
CC(=O)N1CCN(c2ccc(Nc3cc(NC4CCCCC4)c(C(N)=O)nn3)cc2)CC1 [Compound 8, 6-((4-(4-acetylpiperazin-1-yl)phenyl)amino)-4-(cyclohexylamino)pyridazine-3-carboxamide]	100 to 1000 nM	100 to 1000 nM	10 to 100 nM
NC(=O)c1nnc(Nc2ccc(OCCN3CCCC3)cc2)cc1NCc1cccc(F)c1 [Compound 51]	> 1000 nM	100 to 1000 nM	10 to 100 nM
CS(=O)(=O)Cc1cccc(Nc2cc(NCc3cccc(F)c3)c(C(N)=O)nn2)c1 [Compound 91]	> 1000 nM	> 1000 nM	10 to 100 nM
CCC(=O)N1CCN(c2ccc(Nc3cc(NCc4cc(F)ccc4F)c(C(N)=O)nn3)cc2)CC1 [Compound 32]	> 1000 nM	10 to 100 nM	1 to 10 nM
NC(=O)c1nnc(Nc2ccc(N3CCOCC3)c(F)c2)cc1NCc1cccc(F)c1F [Compound 43]	> 1000 nM	> 1000 nM	10 to 100 nM
CN(C(=O)C1CC1)c1ccc(Nc2cc(NCc3cccc(F)c3F)c(C(N)=O)nn2)cc1 [Compound 44]	> 1000 nM	> 1000 nM	10 to 100 nM
NC(=O)c1nnc(Nc2cnn(CC3CC3)c2)cc1NCc1cccc(F)c1 [Compound 119]	> 1000 nM	100 to 1000 nM	10 to 100 nM

SMILES	IC50 (JAK1)	IC50 (JAK2)	IC50 (JAK3)
NC(=O)c1nnc(Nc2cnn(C3CCCC3)c2)cc1NCc1cccc2ccsc12 [Compound 115]	> 1000 nM	10 to 100 nM	10 to 100 nM
NC(=O)c1nnc(Nc2ccc(N3CCOCC3)cn2)cc1NCc1cccc(F)c1 [Compound 64]	> 1000 nM	10 to 100 nM	1 to 10 nM
CC(=O)N1CCN(c2ccc(Nc3cc(NCC(C)C)c(C(N)=O)nn3)cc2)CC1 [Compound 14]	> 1000 nM	100 to 1000 nM	100 to 1000 nM
CCC(=O)N1CCC(Cn2cc(Nc3cc(NCc4cccc5ccsc45)c(C(N)=O)nn3)cn2)CC1 [Compound 128]	100 to 1000 nM	10 to 100 nM	1 to 10 nM
CS(=O)(=O)Cc1ccc(Nc2cc(NCc3cc(F)ccc3F)c(C(N)=O)nn2)cc1 [Compound 88]	100 to 1000 nM	100 to 1000 nM	1 to 10 nM
N#Cc1ccc(N2CCC(Nc3cc(Nc4cnccn4)nnc3C(N)=O)CC2)nc1 [Compound 97]	1 to 10 nM	1 to 10 nM	1 to 10 nM
NC(=O)c1nnc(Nc2cccc(N3CCOCC3)n2)cc1NCc1cccc(F)c1 [Compound 62]	> 1000 nM	> 1000 nM	> 1000 nM
CC(=O)N1CCN(C(=O)c2ccc(Nc3cc(NCc4cccc(F)c4)c(C(N)=O)nn3)cc2)CC1 [Compound 81]	> 1000 nM	100 to 1000 nM	10 to 100 nM
NC(=O)c1nnc(Nc2ccc(N3CCOCC3)cc2)cc1NCc1cccc(F)c1F [Compound 38]	> 1000 nM	100 to 1000 nM	10 to 100 nM
CC(=O)N1CCN(c2ccc(Nc3cc(NCc4cccnc4)c(C(N)=O)nn3)cc2)CC1 [Compound 79]	> 1000 nM	> 1000 nM	100 to 1000 nM
CCC(=O)N1CCN(c2ccc(Nc3cc(NCc4cccc(F)c4F)c(C(N)=O)nn3)cc2)CC1 [Compound 34]	> 1000 nM	10 to 100 nM	1 to 10 nM
CS(=O)(=O)Cc1ccc(Nc2cc(NCc3cccc(F)c3)c(C(N)=O)nn2)cc1 [Compound 85]	100 to 1000 nM	100 to 1000 nM	10 to 100 nM
CC(=O)N1CCN(c2ccc(Nc3cc(NCc4cccc(-c5ccccn5)c4)c(C(N)=O)nn3)cc2)CC1 [Compound 71]	> 1000 nM	> 1000 nM	100 to 1000 nM
NC(=O)c1nnc(Nc2cnn(C3CCCC3)c2)cc1NCc1cccc(F)c1F [Compound 116]	> 1000 nM	100 to 1000 nM	10 to 100 nM
Cn1ccc(Nc2cc(NCc3cccc(F)c3)c(C(N)=O)nn2)n1 [Compound 67]	> 1000 nM	100 to 1000 nM	10 to 100 nM
CCC(=O)N1CCC(c2ccc(Nc3cc(NCc4ccccc4F)c(C(N)=O)nn3)cc2)CC1 [Compound 25]	> 1000 nM	> 1000 nM	10 to 100 nM
CCC(=O)N1CCC(c2ccc(Nc3cc(NCc4cccc(F)c4)c(C(N)=O)nn3)cc2)CC1 [Compound 26]	> 1000 nM	> 1000 nM	10 to 100 nM
CN(C)C(=O)C1CCN(c2ccc(Nc3cc(NCc4cccc(F)c4)c(C(N)=O)nn3)cc2)CC1 [Compound 90]	> 1000 nM	100 to 1000 nM	10 to 100 nM
COc1ccccc1CNc1cc(Nc2ccc(N3CCN(C(C)=O)CC3)cc2)nnc1C(N)=O [Compound 24]	100 to 1000 nM	10 to 100 nM	10 to 100 nM
CC(=O)N1CCN(c2ccc(Nc3cc(NCC4CCNCC4)c(C(N)=O)nn3)cc2)CC1 [Compound 63]	> 1000 nM	> 1000 nM	100 to 1000 nM
NC(=O)c1nnc(Nc2ccc(C(=O)N3CCOCC3)cc2)cc1NCc1cccc(F)c1 [Compound 80]	> 1000 nM	100 to 1000 nM	10 to 100 nM
COC(=O)N(C)c1ccc(Nc2cc(NCc3cccc(F)c3F)c(C(N)=O)nn2)cc1 [Compound 45]	> 1000 nM	> 1000 nM	10 to 100 nM
